# In patent US5741671A, “Isolation cloning and expression of transmembrane water channel aquaporin 1(AQP1)” (The Johns Hopkins University, priority 1995, dated 1998):
# B1: AQP1: Mr 28,000 transmembrane water channel protein of human erythrocytes, 269 amino acids (protein)
# chain: ASEFKKKLFWRAVVAEFLATTLFVFISIGSALGFKYPVGNNQTAVQDNVKVSLAFGLSIATLAQSVGHISGAHLNPAVTLGLLLSCQISIFRALMYIIAQCVGAIVATAILSGITSSLTGNSLGRNDLADGVNSGQGLGIEIIGTLQLVLCVLATTDRRRRDLGGSAPLAIGLSVALGHLLAIDYTGCGINPARSFGSAVITHNFSNHWIFWVGPFIGGALAVLIYDFILAPRSSDLTDRVKVWTSGQVEEYDLDADDINSRVEMKPK
# Assays:
# human RBC = conditions: cited from earlier work
# [1] = Stopped-flow osmotic water permeability of control liposomes; format: biochemical; conditions: mercurial reagent 1 mM
# Protocol: Purified AQP1 was stored overnight at 0° C. or frozen for several days at -80° C. prior to reconstitution. Reconstitution into proteoliposomes was carried out in a final volume of 1 ml containing 60-90 μg of purified AQP1 protein in chromatography buffer, 9 mg of bath-sonicated E. coli phospholipid, 1.25% (w/v) octyl glucoside, and 50 mM Tris-HCl (pH 7.5). The mixture was briefly blended on a vortex mixer and incubated for 20 minutes on ice. […] Protein and phospholipid were measured as described by Ambudkar & Maloney (J. Biol. Chem., 1986, 261:10079-10086).
# (§1) Permeability measurements. Membrane permeability measurements (Pf) were measured by exposing AQP1 proteoliposomes or control liposomes to an osmotic gradient by rapid mixing with an equal volume of another solution containing buffer A plus sufficient sucrose to increase osmolality in the mixed solutions to a value 120% of that in the original solution. This was performed with a stopped-flow fluorometer (SF.17MV, Applied Photophysics, Leatherhead, U.K.) with a measured dead time of 0.7 ms. […] Extravesicular carboxyfluorescein fluorescence was completely quenched using anti-fluorescein antibody (Harris et al., 1990, Am. J. Physiol. 259:F366-F371). […]
# AQP1 = target: T1, AQP1 (Homo sapiens, UniProt P29972); test: Stopped-flow osmotic water permeability of AQP1 proteoliposomes; format: biochemical; conditions: CHIP28 proteoliposomes
# T1 construct: Human erythrocytes were obtained from blood-bank units stored up to 5 weeks; from tissue; host or cells: human erythrocytes (blood-bank units; small-scale preparations from freshly drawn whole blood)
# T1 sequence (P29972 2-269 limits assumed): B1 chain
# Text: Preparation AQP1-containing proteoliposomes. Crude Escherichia coli lipid was obtained from Avanti Polar Lipids, Inc., and neutral lipid was removed by acetone/ether wash (Ambudkar & Maloney, 1986, Methods. Enzymol. 125:558-563). The purified E. coli bulk phospholipid is composed of phosphalidylethanolamine (70%), phosphatidylglycerol (15%), and cardiolipin (15%) (Chen & Wilson, […], Proc. Natl. Acad. Sci. USA 83:2652-2656). E. coli bulk phospholipid was employed since it has previously been used for functional reconstitution of several transport proteins including the glucose transporter of RBCs (Maloney & Ambudkar, 1989, Arch. Biochem. Biophys. 269:1-10; Chen et al., 1986, Proc. Natl. Acad. Sci. USA 83:2652-2656).
# Highly purified AQP1 protein was incorporated into proteoliposomes by detergent dilution; control liposomes were formed in an identical manner without AQP1 protein.
# Purified AQP1 was stored overnight at 0° C. or frozen for several days at -80° C. prior to reconstitution. Reconstitution into proteoliposomes was carried out in a final volume of 1 ml containing 60-90 μg of purified AQP1 protein in chromatography buffer, 9 mg of bath-sonicated E. coli phospholipid, 1.25% (w/v) octyl glucoside, and 50 mM Tris-HCl (pH 7.5). The mixture was briefly blended on a vortex mixer and incubated for 20 minutes on ice. Proteoliposomes (or liposomes prepared without protein) were formed at room temperature by rapidly injecting the mixture into 25 ml of buffer A [50 mM MOPS, pH 7.5, 150 mM N-methyl-D-glucamine (NMDG) chloride also containing 10-15 mM carboxyfluorescein, 1 mM dithiothreitol, and 0.5 mM PMSF]. For the measurement of proton permeability, proteoliposomes and liposomes were loaded with buffer B (5 mM MOPS, pH 7.5, 150 mM KCl, 0.5 mM carboxyfluorescein, 1 mM dithiothreitol, and 0.5 mM PMSF). The suspension was incubated for 20 minutes at room temperature. Proteoliposomes or liposomes were collected by centrifugation for 1 hour at 123000×g in a Beckman Type 42.1 rotor at 4° C. The pellet was resuspended in 8 ml of buffer A or B and then centrifuged for 1 hour at 152000×g in a Beckman Type 50 Ti rotor. Proteoliposomes or liposomes were resuspended in 300 μl of buffer A or B and stored at 4° C. for 16-24 hours. Typically 50% (54±6%, n=5) of the AQP1 protein and 70% of the phospholipid were recovered in proteoliposomes. The lipid to protein ratio was in the range of 120:1 to 219:1. […] Protein and phospholipid were measured as described by Ambudkar & Maloney (J. Biol. Chem., 1986, 261:10079-10086).
# as §1, with “259:F366-F371). Within the range of osmolalities used in these experiments, the vesicles acted as perfect osmometers, and relative volume (absolute volume divided by initial volume) was linearly related to relative fluorescence (absolute fluorescence divided by initial fluorescence).” for “259:F366-F371).”
# CHIP28 water channel = target: T2, CHIP28 water channel (Homo sapiens, UniProt P29972); test: Urea permeability of CHIP28 proteoliposomes; format: biochemical; conditions: internal urea 374 mM, external urea 187 mM
# T2 construct: Human erythrocytes were obtained from blood-bank units stored up to 5 weeks; from tissue; host or cells: human erythrocytes (blood-bank units; small-scale preparations from freshly drawn whole blood)
# T2 sequence (P29972 2-269 limits assumed): B1 chain
# Text: The general formula defining solute exit from a vesicle is
# Jurea =d(urea)/dt=Purea (SA)ΔC (2)
# where Jurea is urea flux, Purea is the permeability coefficient for urea, SA is the surface area of the vesicle, and ΔC is the difference in urea concentration between the inside and outside of the vesicle, which diminishes as the system reaches equilibrium. If
# Using parameters from the single-exponential curve fit to the data and the relationship between relative volume and relative fluorescence, equation 4 was solved for Purea using MathCAD.
# Exclusion of urea. To determine the selectivity of the CHIP28 water channel, CHIP28-containing liposomes were loaded with urea at a level similar to the measured Km for urea transport in RBCs and were abruptly mixed with solutions of identical osmolality containing half the urea concentration. Urea permeability was determined by monitoring the relative fluorescence of entrapped carboxyfluorescein during the urea efflux. Solutions inside and outside the vesicle were of equal osmolality but differed in the concentrations of permeant and impermeant solutes (Grossman et al., 1992, Am. J. Physiol., in press). Thus, internal urea concentration was 374 mM and external urea concentration was 187 mM with the remaining osmolality balanced by 187 mM sucrose. […]
molecule,measurement,setting,value
O=C(CCc1ccc(O)cc1)c1c(O)cc(O)cc1O [Phloretin],effect on urea flux,human RBC,inhibits urea flux
same,effect on water flux,human RBC,without altering water flux
"O=S(=O)([O-])c1cc[c]([Hg][Cl])cc1 [pCMBS, p-chloromercuribenzene sulfonate]",effect on the Pf of control liposomes,[1],Neither pCMBS nor HgCl2 had any effect
same,Pf after mercurial treatment,"AQP1; 1 mM pCMBS, 25 minutes at 37° C.",0.009±0.005 cm/s
same,extent of inhibition of Pf at 5 and 10 minutes,"AQP1; 1 mM, 37° C.",partial
B1,urea permeability versus control liposomes,CHIP28 water channel,did not augment urea permeability
